Among the data in patent US20050222186A1, “Substituted diaminopyrimidines” (Altana Pharma AG, priority 2002, published 2005) are IC50 values, retold here.

Structures are written as SMILES. Bounds are passed on as bounds.

The target of experiment [1] is recombinant human PKC-θ enzyme (Homo sapiens, UniProt Q04759). The experiment in a line: Protein Kinase C-θ assay (SPA, 33P-ATP phosphorylation of biotinylated substrate peptide). It is filed as biochemical. Particulars: 1 μM ATP, 40 min at room temperature, 1% DMSO, read-out: Inhibition of PKC-θ activity [measured as IC50 (μmol/l)]. How it is done: The compounds of formula 1 were tested for their activity on PKC-θ according to the following method. The assay was performed in 96 well microtiter plates (Perkin Elmer Wallac) at a final assay volume of 200 μl. The reaction mixture (50 μl) contained 10 μl of recombinant human PKC-θ enzyme together with 5 μl of the test compound and 3 μM biotinylated PKC-θ substrate peptide (Biotin-RKRQRSMRRRVHOH), 160 μM phosphatidylserine, 0.3 mg/ml BSA, 1 μM ATP and 2 μCi of ^33γ-ATP (Amersham) in 40 mM Tris-buffer pH 7.4. Incubation was performed for 40 min at room temperature. The reaction was stopped by adding 150 μl of a mixture containing 10 mM ATP and 1.33 mg/ml streptavidin coated yttrium silicate SPA beads (Amersham). Incorporated radioactivity (cpm) was measured for 2 min in a radioactivity counter (Wallac MicroBeta JET). […] IC50 values for inhibition of PKC-θ were calculated from the concentration-inhibition curves by nonlinear-regression.
recombinant human PKC-θ enzyme, sequence (Q04759 whole entry): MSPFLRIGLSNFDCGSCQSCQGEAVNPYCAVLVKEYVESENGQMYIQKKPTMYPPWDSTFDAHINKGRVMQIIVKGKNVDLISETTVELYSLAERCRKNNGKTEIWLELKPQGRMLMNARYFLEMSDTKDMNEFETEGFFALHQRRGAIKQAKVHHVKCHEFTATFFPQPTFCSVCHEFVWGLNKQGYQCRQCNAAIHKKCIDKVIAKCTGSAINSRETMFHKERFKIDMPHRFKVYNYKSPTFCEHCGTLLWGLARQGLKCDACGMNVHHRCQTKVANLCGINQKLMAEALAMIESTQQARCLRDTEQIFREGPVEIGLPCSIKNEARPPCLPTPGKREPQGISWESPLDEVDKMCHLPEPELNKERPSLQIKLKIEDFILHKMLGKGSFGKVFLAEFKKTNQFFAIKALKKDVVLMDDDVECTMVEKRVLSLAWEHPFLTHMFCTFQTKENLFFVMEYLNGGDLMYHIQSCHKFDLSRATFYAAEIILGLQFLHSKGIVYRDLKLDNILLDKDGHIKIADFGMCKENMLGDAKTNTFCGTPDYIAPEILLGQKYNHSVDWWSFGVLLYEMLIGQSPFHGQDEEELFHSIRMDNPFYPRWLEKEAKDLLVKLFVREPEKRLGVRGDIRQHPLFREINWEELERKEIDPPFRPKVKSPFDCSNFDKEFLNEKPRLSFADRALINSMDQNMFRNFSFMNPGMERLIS

Another experiment has as its system CD4+ lymphocytes. The experiment in a line: CD4+ proliferation assay (αCD3/αCD28 stimulation, 3H-methylthymidin incorporation). It is filed as cell-based. Particulars: Lymphocyte, αCD3/αCD28 stimulated CD4+ lymphocytes, 48 h incubation, read-out: Inhibition of CD4+ cell proliferation [measured as IC50 (μmol/l)]. How it is done:
(§1) CD4+ lymphocytes were purified as described by Hatzelmann and Schudt (J Pharmacol Exp Ther 297: 267-279) and resuspended in assay medium (RPMI 1640/10% fetal calf serum (FCS) containing 2 mM Glutamine, 1% sodiumpyruvate, 1% non-essential amino acids and 1% penicillin/streptomycin) at a density of 1×10^6 cells/ml. 96 well plates were coated with αCD3 antibodies (0.3 μg/well; Ortho-clone OKT-3, Jansen-Cilag) for 2.5 h at 37° C. in 5% CO2 and then washed twice with PBS (200 μl/well). Prior to plating of the cells (200 μl, 2×10^5 cells) the compounds of formula 1 dissolved in 2% DMSO were added to the antibody-coated plates at the desired concentrations. Following a preincubation period of 30 min at 37° C. and 5% CO2 10 μl of αCD28 antibody (3 μg/ml, Beckman) were added and incubation continued for 48 h at 37° C. and 5% CO2. 18 h prior to cell harvest 10 μl of ^3H-methylthymidin (0.2 μCi, Amersham) were added. After 48 h total incubation time the cells were lysed using deionized water and radiolabeled DNA was immobilized on 96 well filter plates using a Tomtec device. The plates were dried at 60° C. for 1 h and overlayed with 40 μl Microscint-O (Packard) before counting in a Topcount radioactivity counter (Packard). Calculation of IC50 values was performed as described above.

The test system of a further experiment is CD4+ T lymphocytes. The experiment in a line: CD4+ IL-2 secretion assay (ELISA of supernatants). The experiment is classed as cell-based. Particulars: αCD3/αCD28 stimulated CD4+ T lymphocytes, 48 h incubation, IL-2 in supernatants by ELISA; read-out: Inhibition of IL-2 secretion in CD4+ cell [measured as IC50 (μmol/l)]. How it is done:
as §1
CD4+ T lymphocytes were stimulated and treated with compounds of formula 1 as described above for the CD4+ proliferation assay. Following a 48 h incubation period IL-2 levels in the supernatants (50 μl/well) were determined by ELISA (Beckman Coulter). Calculation of IC50 values was performed as described above.

Consider `CC(=O)c1cccc(-c2cnc(NCc3ccccn3)nc2NC2CCN(Cc3ccccc3)CC2)c1` [Example 22, 1-(3-[4-(1-Benzyl-piperidinylamino)-2-[(pyridin-2-ylmethyl)-amino]-pyrimidin-5-yl}phenyl)-ethanone], for which the IC50 in experiment [1] is below 4 µmol/L.
On to `c1ccc(CN2CCC(Nc3nc(NCc4ccccn4)ncc3-c3ccsc3)CC2)cc1` [Example 1, [1-Benzyl(4-piperidyl)]{2-[(2-pyridylmethyl)amino]-5-(3-thienyl)pyrimidin-4-yl}amine], for which the IC50 (in experiment [1]; with CD4+ lymphocytes; in the experiment with CD4+ T lymphocytes) was below 4 µmol/L in each case.
With `c1ccc(CN2CCC(Nc3nc(NCc4ccccn4)ncc3-c3ccco3)CC2)cc1` [Example 12, {5-(2-Furanyl)-2-[(2-pyridylmethyl)amino)pyrimidin-4-yl}[1-benzyl(4-piperidyl)]amine], the IC50 (in experiment [1]; with CD4+ T lymphocytes) was below 4 µmol/L throughout.
Take `NC(=O)c1ccc(-c2cnc(NCc3ccncc3)nc2NC2CCN(Cc3ccccc3)CC2)cc1` [Example 6, {5-(Phenyl-4-carboxamido)-2-[(4-pyridylmethyl)amino)pyrimidin-4-yl}[1-benzyl(4-piperidyl)]-amine]: the IC50 in the experiment with CD4+ T lymphocytes was below 4 µmol/L.
For `c1ccc(CN2CCC(Nc3nc(NCc4ccccn4)ncc3-c3ccoc3)CC2)cc1` [Example 13, {5-(3-Furanyl)-2-[(2-pyridylmethyl)amino)pyrimidin-4-yl}[1-benzyl(4-piperidyl)]amine], the IC50 (in experiment [1]; in the experiment with CD4+ T lymphocytes) was below 4 µmol/L in each case.
As for `CC(=O)c1ccc(-c2cnc(NCc3ccccn3)nc2NC2CCN(Cc3ccccc3)CC2)cc1` [Example 21], the IC50 in experiment [1] was below 4 µmol/L.
Take `c1ccc(CN2CCC(Nc3nc(NCc4ccccn4)ncc3-c3cccs3)CC2)cc1` [Example 14, {5-(2-Thienyl)-2-[(2-pyridylmethyl)amino)pyrimidin-4-yl}[1-benzyl(4-piperidyl)]amine]: the IC50 (in experiment [1]; in the experiment on CD4+ lymphocytes; with CD4+ T lymphocytes) was below 4 µmol/L throughout.
As for `NC(=O)c1ccc(-c2cnc(NCc3ccccn3)nc2NC2CCN(Cc3ccccc3)CC2)cc1` [Example 15], the IC50 (in experiment [1]; with CD4+ lymphocytes; with CD4+ T lymphocytes) was below 4 µmol/L throughout.
With `c1ccc(CN2CCC(Nc3nc(NCc4ccncc4)ncc3-c3cccs3)CC2)cc1` [Example 8, {5-(2-Thienyl)-2-[(4-pyridylmethyl)amino)pyrimidin-4-yl}[1-benzyl(4-piperidyl)]amine], the IC50 with CD4+ lymphocytes and with CD4+ T lymphocytes was below 4 µmol/L throughout.
